Assay results from patent US20250064768A1, “METHODS AND COMPOSITIONS FOR TREATING AGING AND CHRONIC DISEASE” (priority 2021, published 2025).

Columns and labels:
[1] = human, in vivo; cited from earlier work
[2] = mouse, in vivo
Protocol: The clinical development of trans-crocetin has been problematic because its oxygen diffusion enhancing effect is transient, due to two key factors. Poor solubility: trans-crocetinate monovalent metal salts such as TSC, as free drugs were designed presumably to overcome the solubility issue associated with crocetin (free acid). Short half-life: TSC half-life is approximately 30 minutes, which in a clinical setting leads to transient effect on oxygen diffusion enhancement.

[3] = in vivo; cited from earlier work
HUVECs = experiment: Reoxygenation of hypoxic HUVECs (flow cytometry, BioTracker 520 green hypoxia dye); format: cell-based; conditions: HUVECs under hypoxia (1%)
Protocol: The % P02 was assessed based on the readout of the BioTracker 520 green hypoxia dye. (FIG. 1G) Quantification of % P02 based on the flow cytometric data. (FIG. 1H) Quantification of % P02 based on the flow cytometric data of HUVECs incubated with 120 μg/mL LEAF-4L121 over time and (FIG. 11) as a function of various concentrations of LEAF-4L121 at 24 h.
In vitro, we first sought to evaluate the reoxygenation properties of LEAF-4L121 in endothelial cells (HUVECs). The IC50 of LEAF-4L121 in HUVECs was determined after 72 h of treatment by viability assays (CellTiter-Glo, Promega). […] We next incubated HUVECs in hypoxic conditions (1% P02) for 24 h before treatment with either free TC or various concentrations of LEAF-4L121. […] This rapid oxygenation effect of LEAF-4L121 is likely attributed to a biphasic release of TC from the liposomes that includes an initial fast release (approx. 25% in the first 6 h) of some of the payload followed by a more sustained release of TC from the liposomes over a prolonged period.

[4] = Phase 2 clinical study of liposomal trans-crocetin: pharmacokinetics; conditions: across different dosing regimens
mouse model of sepsis = conditions: in vitro results and mouse model of sepsis

SMILES	safety in clinical trials [1]	half-life (t½) [2]	half-life [3]	reoxygenation, PO2 (HUVECs; 30 min post-treatment, 5 μg/mL TC)	reoxygenation, PO2 (HUVECs; 3 h after treatment) [% P02]	AUC and Cmax versus body weight [4]	reoxygenation activity (mouse model of sepsis)
CC(/C=C/C=C(\C)C(=O)[O-])=C\C=C\C=C(C)\C=C\C=C(/C)C(=O)[O-].[Na+].[Na+] [TSC, trans sodium crocetinate]	no safety concerns	half an hour	approximately 30 minutes	–	–	–	–
CC(/C=C/C=C(\C)C(=O)O)=C\C=C\C=C(C)\C=C\C=C(/C)C(=O)O [TC, trans-crocetin]	–	–	–	up to 15 % PO2	5	stable levels of AUC and Cmax across a wide range of body weights	demonstrated the reoxygenation activity
